From paper PMC4951311 (Oncotarget, 2016)
“Also recorded” adds a separate entry of the source. Where a name gives a salt, the structure may show the parent alone.

What was measured:
Assay type in all cases: in vivo, human
[1] = Steady-state plasma pharmacokinetics of enzastaurin and metabolites in native Chinese cancer patients (LC-MS/MS, noncompartmental)
Description: Then, the study drug ceased for three days (days 15 to 17) and resumed on day 18, after the last PK sample was obtained. During the study, dosing occurred at approximately the same time of day for each individual patient.
Nominal collection times were day 14 predose and 1, 2, 4, 6, 8, 10, 24, 48, 72, and 96 h postdose. […] The actual sampling time was accurately recorded for analysis.
Pharmacokinetic parameters were calculated using noncompartmental methods of analysis using WinNonlin (Pharsight Corp., Cary, NC, USA). […] Total plasma analyte AUCτ, ss and Cav ss were calculated by summing the respective AUCτ, ss or Cav, ss estimates for each of the 4 individual analytes. Total plasma analyte Cmax was reported as the highest sum of individual analyte concentrations at any given sampling time during a concentration-time profile, not the sum of the Cmax of each analyte. […] The AUC was calculated by a combination of linear and logarithmic trapezoidal methods. The linear trapezoidal method was employed up to tmax, and the log trapezoidal method was then used for data after tmax. PK measurements were calculated based on the actual collection times. Patients with insufficient data were excluded from the analysis.

[2] = Safety: adverse events graded by CTCAE v3.0 in native Chinese cancer patients
Description: Eligibility assessments, which consisted of a complete medical history, physical examination, ECOG performance status, vital sign measurements, concomitant drugs, ECG, laboratory tests, one or more relevant radiologic test(s) for tumor measurement (computed tomography scan, magnetic resonance imaging, X-ray, or bone scan) and tumor measurement of palpable or visible lesions, were conducted within 28 days before the lead-in day. Lead-in day (within 7 days before treatment initiation) assessments included physical examination, ECOG performance status, vital sign measurements, concomitant drugs, ECG (at 0 and 4 h) and laboratory tests.
ECGs were performed 4 h after treatment on days 1 and 2. Patients received the same assessments on day 14 as on the lead-in day, except that ECGs were performed predose (0 h) and 4 h postdose. Blood samples for PK were collected from days 14 to 18. After retreatment for 2 to 4 weeks from day 18, patients were re-evaluated to determine whether they should continue in the safety extension phase or washout prior to withdrawal from the study.
(§1) All patients who entered the safety extension phase were evaluated with a physical examination, vital signs, laboratory tests, concomitant drugs, ECG at a 4-week follow-up visit, tumor measurements and imaging studies at 4- to 8-week intervals.
(§2) All observed AEs were graded using the CTCAE, version 3.0 (NCI 2003). Imaging studies of involved disease sites were repeated every 4 to 8 weeks in patients who entered the safety extension phase. All lesion assessments, whether by physical examination or radiologic methods, were repeated by the same methods at least 4 weeks following the initial observation of an objective response for response confirmation. Responses were recorded based on Response Evaluation Criteria in Solid Tumors, version 1.0 (RECIST 1.0), and Revised Response Criteria for Malignant Lymphoma.

[3] = test system: refractory solid tumors and lymphoma; experiment: Anti-tumor response (RECIST 1.0 / Revised Response Criteria for Malignant Lymphoma), safety extension phase
Description: as §1, §2

[4] = of 9 non-Hodgkin lymphoma patients
[5] = of 10 evaluated lymphoma patients

In the case of `Cn1cc(C2=C(c3cn(C4CCN(Cc5ccccn5)CC4)c4ccccc34)C(=O)NC2=O)c2ccccc21` [enzastaurin, Enzastaurin monohydrochloride], the “Cav, ss” value ([1]; 500 mg orally once daily, steady state, geometric mean (% CV), N = 23) is reported as 1,210 nmol/L, the “Cav, ss” value ([1]; 500 mg orally once daily, steady state, geometric mean (% CV), N = 23, listed as Enzastaurin) is reported as 1210 (128) nmol/L and the Cmax ([1]; human, plasma, po, 500 mg) is reported as 2370 nM. For the same compound, the Tmax ([1]; human, plasma, po, 500 mg, 500 mg orally once daily, steady state, median and range, N = 23) was no more than 4 h, the AUC ([1]; human, plasma, po, 500 mg orally once daily, steady state, one dosing interval, geometric mean (% CV), N = 23) was 29.1 µM·h and the half-life ([1]; human, plasma, po, 500 mg orally once daily, washout days 15-17, geometric mean and range, N = 21) was 14 h. The Tolerability ([2]; 500 mg daily, Chinese patients) was “well tolerated with minimal toxicity”, the “Deaths or serious adverse events during the study” value ([2]; 500 mg once daily) was “No deaths or other serious adverse events; also recorded: Neither drug-related deaths nor serious AEs were reported” and the “Discontinuation because of an AE” value ([2]; 500 mg once daily) was “No patients discontinued because of an AE; also recorded: No patient withdrew from the study because of toxicity”. For the same compound, the “Patients reporting at least 1 AE (percent)” value ([2]; PK phase) was 80%, the “Patients reporting at least 1 AE, drug related” value ([2]; PK phase) was 14 and the “Patients reporting at least 1 AE” value ([2]; PK phase, 25 patients treated) was 20 patients. For the same compound, the “Number of patients with drug-related abdominal pain, grade 0” value ([2]; maximum grade 0, n = 25) was 22, the “Number of patients with drug-related anemia, grade 0” value ([2]; maximum grade 0, n = 25) was 24 and the “Number of patients with drug-related chromaturia, grade 0” value ([2]; maximum grade 0, n = 25) was 22. For the same compound, the “Number of patients with drug-related diarrhea, grade 0” value ([2]; maximum grade 0, n = 25) was 24, the “Number of patients with drug-related fatigue, grade 0” value ([2]; maximum grade 0, n = 25) was 24 and the “Number of patients with drug-related increased ALT, grade 0” value ([2]; maximum grade 0, n = 25) was 22. For the same compound, the “Number of patients with drug-related increased AST, grade 0” value ([2]; maximum grade 0, n = 25) was 23, the “Number of patients with drug-related insomnia, grade 0” value ([2]; maximum grade 0, n = 25) was 24 and the “Number of patients with drug-related leukopenia, grade 0” value ([2]; maximum grade 0, n = 25) was 23. The “Number of patients with drug-related lymphocytopenia, grade 0” value ([2]; maximum grade 0, n = 25) was 23, the “Number of patients with drug-related nausea, grade 0” value ([2]; maximum grade 0, n = 25) was 24 and the “Number of patients with drug-related neutropenia, grade 0” value ([2]; maximum grade 0, n = 25) was 24. The “Number of patients with drug-related thrombocytopenia, grade 0” value ([2]; maximum grade 0, n = 25) was 24, the “Number of patients with drug-related QT prolongation, grade 0” value ([2]; maximum grade 0, n = 25, 500 mg daily) was 21 and the “Number of patients with drug-related abdominal pain, grade 1” value ([2]; maximum grade 1, n = 25) was 3. The “Number of patients with drug-related anemia, grade 1” value ([2]; maximum grade 1, n = 25) was 1, the “Number of patients with drug-related chromaturia, grade 1” value ([2]; maximum grade 1, n = 25) was 3 and the “Number of patients with drug-related fatigue, grade 1” value ([2]; maximum grade 1, n = 25) was 1. The “Number of patients with drug-related increased ALT, grade 1” value ([2]; maximum grade 1, n = 25) was 3, the “Number of patients with drug-related increased AST, grade 1” value ([2]; maximum grade 1, n = 25) was 2 and the “Number of patients with drug-related leukopenia, grade 1” value ([2]; maximum grade 1, n = 25) was 1. For the same compound, the “Number of patients with drug-related lymphocytopenia, grade 1” value ([2]; maximum grade 1, n = 25) was 1, the “Number of patients with drug-related nausea, grade 1” value ([2]; maximum grade 1, n = 25) was 1 and the “Number of patients with drug-related neutropenia, grade 1” value ([2]; maximum grade 1, n = 25) was 1. The “Number of patients with drug-related thrombocytopenia, grade 1” value ([2]; maximum grade 1, n = 25) was 1, the “Number of patients with drug-related QT prolongation, grade 1” value ([2]; maximum grade 1, n = 25, 500 mg daily) was 1 and the “Number of patients with drug-related diarrhea, grade 2” value ([2]; maximum grade 2, n = 25) was 1. The “Number of patients with drug-related insomnia, grade 2” value ([2]; maximum grade 2, n = 25) was 1, the “Number of patients with drug-related leukopenia, grade 2” value ([2]; maximum grade 2, n = 25) was 1 and the “Number of patients with drug-related lymphocytopenia, grade 2” value ([2]; maximum grade 2, n = 25) was 1. The “Number of patients with drug-related QT prolongation, grade 2” value ([2]; maximum grade 2, n = 25, 500 mg daily) was 2, the “Number of patients with drug-related QT prolongation, grade 3” value ([2]; maximum grade 3, n = 25, 500 mg daily) was 1 and the “Patients who experienced grade 3 AEs” value ([2]; regardless of causality, CTCAE) was 7 patients. For the same compound, the “Patients who experienced a grade 4 AE” value ([2]; regardless of causality, neutropenia considered caused by leukemia) was 1, the “Patients reporting at least 1 AE (percent)” value ([2]; safety extension phase) was 53.3% and the “Patients reporting at least 1 AE, drug related” value ([2]; safety extension phase) was 5. The “Patients reporting at least 1 AE” value ([2]; safety extension phase, 15 patients) was 8 patients, the “NHL patients who achieved a partial response” value [3, 4] was 1 and the “NHL patients who achieved stable disease” value [3, 4] was 4. For the same compound, the “NHL patients with complete response on enzastaurin maintenance therapy after salvage chemotherapy” value [3, 4] was 1, the “Lymphoma patients with progressive disease” value [3, 5] was “three” and the “Lymphoma patients with stable disease” value [3, 5] was “five”. For the same compound, the “Duration of stable disease” value ([3]; one Hodgkin lymphoma patient) was 22.1 months, the “Duration of stable disease” value ([3]; one follicular lymphoma patient) was 25.2 months and the “Duration of partial response” value ([3]; one patient with relapsed DLBCL) was 8.1 months. The “Disease-free time on enzastaurin after complete response following salvage chemotherapy” value ([3]; one patient with relapsed DLBCL, still on drug at last follow-up) was 30 months, the “Activity in advanced/metastatic solid tumors” value ([3]; overall judgement) was “poor activity” and the Efficacy against lymphoma ([3]; overall judgement) was “limited efficacy”. For the same compound, the “Time of treatment at which partial response was observed” value ([3]; relapsed DLBCL patient, PET-CT) was 1.8 months.
